Where a SMILES comes first, the peptide text is derived from it. The star is where a group is joined. Cbz = O=C(OCc1ccccc1)*
Key:
[1] = tested on: Vif-mediated APOBEC3G degradation; test: Cell-based screening assay, Vif/APOBEC3G-luciferase HeLa line; design: species or system HIV; conditions: 10 μM MG132 for 24 hours; selected blasticidin-resistant Vif/APOBEC3G-luciferase HeLa clone
Description: Inhibitors of Vif-mediated APOBEC3G degradation were screened using a cell-based assay. The assay uses HeLa cells that stably expresses Vif and APOBEC3G fused at its C-terminus to firefly luciferase. Under steady-state conditions, there is very little luciferase activity. When degradation of the APOBEC3G-luciferase fusion is inhibited, a significant increase in the luciferase activity is observed.
Construction of screening line (Vif/APOBEC3G-luciferase HeLa line). HeLa cells were cotransfected with a 1:1 ratio of pcDNA6-Vif and pcDNA3.1-APOBEC3G-luciferase plasmids using Fugene transfection reagent. Twenty-four hours after transfection, cells were trypsinized and different dilutions plated on 10 cm dishes. After attachment, stable transfectants were selected using medium containing 10 μg/ml blasticidin S. The blasticidin resistance gene is carried in the pcDNA6-Vif plasmid. Individual clones were plated in duplicate 96-well plates, treated with either DMSO or 10 μM MG132 for 24 hours, and then assayed for luciferase activity. […] The presence of Vif and APOBEC3G-luciferase proteins was confirmed by treating cells with 10 μM MG132 overnight and analyzing cell lysates for both Vif and APOBEC3G-luciferase by western blotting (See FIG. 7B).

[2] = tested on: A3G-luciferase (A3G-luc); test: APOBEC3G-luciferase activity in 293T cell lysate of co-transfected virus producer cells; format: cell-based; conditions: 10 uM MG132
Description: (§1) In all embodiments employing cotransfection of a wild-type or Δvif HIV genome together with an APOBEC3G-fluorescent reporter fusion, adjusting the relative ratio of plasmids encoding the wild-type (WT) or Δvif HIV genomes and A3G-luciferase (A3G-luc) for cotransfection in virus producer cells (e.g., 293T cells) is useful for achieving an optimal signal to background ratio and dynamic assay range for antiviral compound characterization. Adjusting the cotransfection ratio is also useful for obtaining a linear correlation between the fluorescent reporter (e.g., luciferase) signal and the level of A3G-fluorescent reporter protein detected by Western blotting. The luciferase activity ratio of (Δvif HIV+A3G-luc) over (WT HIV+A3G-luc) in both virus supernatant and 293T cell lysates was measured.
(§2) 293T cells were seeded in 6-well plates at 500,000 cells/well density. On the second day, 4 μg of wild-type or delta vif HIV-1 construct and pcDNA3.1-APOBEC3G-luciferase construct plasmid DNA were co-transfected into 293T cells using Lipofectamine 2000 (Invitrogen). On the third day, cells were detached with trypsin and plated into 24-well plates at 300,000 cells/well density. On the fourth day, medium was replaced in each well with either 0.5% DMSP medium or with compound and 0.5% DMSO containing medium.
Twenty hours post dosing, the virus producing 293T cells of Example 5 were lysed with 200 μL of Bright-Glo lysis buffer in 24-well plates. Cell lysates were diluted 1:100 in PBS. 10 μL of each lysate sample were transferred to small well 96-well plates and 10 μL of Bright-Glo substrate were added to each well. The luciferase activity from the cell lysates was then detected using a Top Count reader. The total protein concentration was determined using the Quant-IT Protein Assay Kit (Molecular Probes). The luciferase activity was normalized relative to total cellular protein by dividing the background corrected luciferase light units by the total protein concentration.

[3] = tested on: A3G-luciferase (A3G-luc); test: APOBEC3G-luciferase activity in virus supernatant of co-transfected 293T cells; format: cell-based; conditions: 10 uM MG132
Description: as §1, §2
Twenty hours post dosing, the culture supernatant from Example 5 was harvested and filtered through a 0.45μ filter. Twenty microliters of virus supernatant from each sample were transferred into a 96-Well plate. 30 μL of culture medium and 50 μL of Bright-Glo lysis buffer (Promega), were added to each well, followed by 50 μL of Bright-Glo Substrate (Promega). The luciferase activity from the virus supernatant was then detected using a Top Count reader (Perkin Elmer). The concentration of virus particles in the supernatant was determined by p24 ELISA (Perkin Elmer). The luciferase activity of the virus supernatant was then normalized relative to the concentration of virus particles by dividing the background corrected luciferase light units by the p24 values.

[4] = Experiment 1, co-transfection ratio 19:1
[5] = Experiment 1, co-transfection ratio 39:1
[6] = Experiment 1, co-transfection ratio 79:1
[7] = Experiment 1, co-transfection ratio 159:1
[8] = Experiment 2, co-transfection ratio 19:1
[9] = Experiment 2, co-transfection ratio 39:1
[10] = Experiment 2, co-transfection ratio 79:1
[11] = Experiment 2, co-transfection ratio 159:1

## CC(C)C[C@@H](C=O)NC(=O)[C@H](CC(C)C)NC(=O)[C@H](CC(C)C)NC(=O)OCc1ccccc1 [MG132] (Cbz-Leu-Leu-Leu-aldehyde)
[1]
  window in luciferase activity between DMSO and MG132: at least a ten-fold window in luciferase activity
[2]; [4]
  RLU ratio (delta vif HIV + A3G-luc/WT HIV + A3G-luc), 293 T cell lysate (RLU): 2.6
[2]; [5]
  RLU ratio (delta vif HIV + A3G-luc/WT HIV + A3G-luc), 293 T cell lysate (RLU): 2.4
[2]; [6]
  RLU ratio (delta vif HIV + A3G-luc/WT HIV + A3G-luc), 293 T cell lysate (RLU): 3.7
[2]; [7]
  RLU ratio (delta vif HIV + A3G-luc/WT HIV + A3G-luc), 293 T cell lysate (RLU): 6.8
[2]; [8]
  RLU ratio (delta vif HIV + A3G-luc/WT HIV + A3G-luc), 293 T cell lysate (RLU): 1.4
[2]; [9]
  RLU ratio (delta vif HIV + A3G-luc/WT HIV + A3G-luc), 293 T cell lysate (RLU): 1.8
[2]; [10]
  RLU ratio (delta vif HIV + A3G-luc/WT HIV + A3G-luc), 293 T cell lysate (RLU): 2.9
[2]; [11]
  RLU ratio (delta vif HIV + A3G-luc/WT HIV + A3G-luc), 293 T cell lysate (RLU): 8.7
[3]; [4]
  RLU ratio (delta vif HIV + A3G-luc/WT HIV + A3G-luc), Virus sup. (RLU): 3.2
[3]; [5]
  RLU ratio (delta vif HIV + A3G-luc/WT HIV + A3G-luc), Virus sup. (RLU): 5.5
[3]; [6]
  RLU ratio (delta vif HIV + A3G-luc/WT HIV + A3G-luc), Virus sup. (RLU): 5.9
[3]; [7]
  RLU ratio (delta vif HIV + A3G-luc/WT HIV + A3G-luc), Virus sup. (RLU): 4.7
[3]; [8]
  RLU ratio (delta vif HIV + A3G-luc/WT HIV + A3G-luc), Virus sup. (RLU): 9.2
[3]; [9]
  RLU ratio (delta vif HIV + A3G-luc/WT HIV + A3G-luc), Virus sup. (RLU): 3.9
[3]; [10]
  RLU ratio (delta vif HIV + A3G-luc/WT HIV + A3G-luc), Virus sup. (RLU): 16.8
[3]; [11]
  RLU ratio (delta vif HIV + A3G-luc/WT HIV + A3G-luc), Virus sup. (RLU): 9.2

Source: US20110104662A1, “Methods of Detecting Inhibitors of VIF-Mediated APOBEC3G Degradation and HIV” (RIGEL PHARMACEUTICALS, INC., priority 2007, published 2011)
